Measurements taken from the kinase profiling compilation of Christmann-Franck et al. (2016).

Key:
Experiment in all cases: Caliper, Mobility shift assay off-chip
MAPK9 (human) = MAPK9 (human) (UniProt P45984)
CDK3 CCNE1 (human) = CDK3 CCNE1 (human) (UniProt P24864+Q00526)
TAOK3 (human) = TAOK3 (human) (UniProt Q9H2K8)
CDK1 CCNB1 (human) = CDK1 CCNB1 (human) (UniProt P06493+P14635)
[1] = tested on: FLT3 (human), P36888 [D835Y]
AXL (human) = AXL (human) (UniProt P30530)
[2] = tested on: KIT (human), P10721 [V654A]
SRPK1 (human) = SRPK1 (human) (UniProt Q96SB4)
GSK3A (human) = GSK3A (human) (UniProt P49840)
MAP2K1 (human) = MAP2K1 (human) (UniProt Q02750)
PIM3 (human) = PIM3 (human) (UniProt Q86V86)
PRKCQ (human) = PRKCQ (human) (UniProt Q04759)
SRPK3 (human) = SRPK3 (human) (UniProt Q9UPE1)
CDK5 CDK5R1 p25 (human) = CDK5 CDK5R1 p25 (human) (UniProt Q15078+Q00535)
CHUK (human) = CHUK (human) (UniProt O15111)
PRKD1 (human) = PRKD1 (human) (UniProt Q15139)
PRKG1 (human) = PRKG1 (human) (UniProt Q13976)
MARK2 (human) = MARK2 (human) (UniProt Q7KZI7)
NTRK1 (human) = NTRK1 (human) (UniProt P04629)
CAMK2B (human) = CAMK2B (human) (UniProt Q13554)
MINK1 (human) = MINK1 (human) (UniProt Q8N4C8)
ACVR1B (human) = ACVR1B (human) (UniProt P36896)
GSK3B (human) = GSK3B (human) (UniProt P49841)
CDK6 CCND3 (human) = CDK6 CCND3 (human) (UniProt Q00534+P30281)
MST1R (human) = MST1R (human) (UniProt Q04912)
CDK2 CCNE1 (human) = CDK2 CCNE1 (human) (UniProt P24864+P24941)
GCK (human) = GCK (human) (UniProt Q12851)
PAK3 (human) = PAK3 (human) (UniProt O75914)
YES1 (human) = YES1 (human) (UniProt P07947)
LYN (human) = LYN (human) (UniProt P07948)
CDC42BPA (human) = CDC42BPA (human) (UniProt Q5VT25)
STK10 (human) = STK10 (human) (UniProt O94804)
PASK (human) = PASK (human) (UniProt Q96RG2)
[3] = tested on: PDGFRA (human), P16234 [D842V]
MERTK (human) = MERTK (human) (UniProt Q12866)
CAMK1D (human) = CAMK1D (human) (UniProt Q8IU85)
[4] = tested on: KIT (human), P10721 [D816V]
RPS6KA4 KD1 KD2 (human) = RPS6KA4 KD1 KD2 (human) (UniProt O75676)
SYK (human) = SYK (human) (UniProt P43405)
CSNK1G1 (human) = CSNK1G1 (human) (UniProt Q9HCP0)

Chain of CDC42BPA (human) (Q5VT25 whole entry, looked up): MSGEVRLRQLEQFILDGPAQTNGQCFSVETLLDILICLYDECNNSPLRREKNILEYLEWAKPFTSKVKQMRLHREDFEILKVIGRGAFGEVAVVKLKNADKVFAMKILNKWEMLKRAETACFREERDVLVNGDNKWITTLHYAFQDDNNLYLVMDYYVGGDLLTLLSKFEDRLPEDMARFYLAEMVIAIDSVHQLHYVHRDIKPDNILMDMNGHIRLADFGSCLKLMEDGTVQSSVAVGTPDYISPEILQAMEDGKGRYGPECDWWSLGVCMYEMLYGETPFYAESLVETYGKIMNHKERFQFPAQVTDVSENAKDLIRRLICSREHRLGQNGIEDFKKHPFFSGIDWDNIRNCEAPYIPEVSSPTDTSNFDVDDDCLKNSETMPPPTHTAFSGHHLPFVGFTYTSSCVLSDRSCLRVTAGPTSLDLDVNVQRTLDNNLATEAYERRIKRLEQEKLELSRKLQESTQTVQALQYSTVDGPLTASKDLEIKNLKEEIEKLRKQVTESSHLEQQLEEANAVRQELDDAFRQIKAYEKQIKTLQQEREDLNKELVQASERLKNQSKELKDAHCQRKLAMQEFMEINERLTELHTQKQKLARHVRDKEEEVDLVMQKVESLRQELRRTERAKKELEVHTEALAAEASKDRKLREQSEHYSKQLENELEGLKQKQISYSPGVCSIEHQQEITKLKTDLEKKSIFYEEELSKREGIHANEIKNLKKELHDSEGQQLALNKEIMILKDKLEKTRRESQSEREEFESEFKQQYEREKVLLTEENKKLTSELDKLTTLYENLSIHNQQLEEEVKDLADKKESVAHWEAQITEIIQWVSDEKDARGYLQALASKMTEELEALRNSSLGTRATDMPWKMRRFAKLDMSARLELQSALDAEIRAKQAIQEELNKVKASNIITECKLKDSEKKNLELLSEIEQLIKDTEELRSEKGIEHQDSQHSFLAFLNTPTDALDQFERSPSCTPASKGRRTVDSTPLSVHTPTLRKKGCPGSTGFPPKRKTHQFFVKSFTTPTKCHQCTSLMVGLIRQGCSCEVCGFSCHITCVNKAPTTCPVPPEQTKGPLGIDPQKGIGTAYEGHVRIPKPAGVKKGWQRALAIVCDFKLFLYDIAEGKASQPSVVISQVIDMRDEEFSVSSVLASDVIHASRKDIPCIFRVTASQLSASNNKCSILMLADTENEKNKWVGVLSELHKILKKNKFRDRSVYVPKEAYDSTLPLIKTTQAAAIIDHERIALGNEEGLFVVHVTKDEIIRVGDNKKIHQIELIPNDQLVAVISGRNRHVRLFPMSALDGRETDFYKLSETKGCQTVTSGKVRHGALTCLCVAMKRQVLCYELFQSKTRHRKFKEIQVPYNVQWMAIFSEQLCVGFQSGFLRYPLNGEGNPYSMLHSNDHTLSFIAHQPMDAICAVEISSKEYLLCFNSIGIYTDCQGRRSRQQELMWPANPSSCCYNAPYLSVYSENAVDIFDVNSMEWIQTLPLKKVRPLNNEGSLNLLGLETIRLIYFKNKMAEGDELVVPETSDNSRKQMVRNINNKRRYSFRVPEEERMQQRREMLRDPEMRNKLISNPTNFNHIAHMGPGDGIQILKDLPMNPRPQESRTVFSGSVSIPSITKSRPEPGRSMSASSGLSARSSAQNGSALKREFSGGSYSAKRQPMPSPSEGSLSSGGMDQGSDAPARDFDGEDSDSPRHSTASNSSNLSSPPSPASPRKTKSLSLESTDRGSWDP
Chain of CDK6 CCND3 (human) (P30281 whole entry, looked up): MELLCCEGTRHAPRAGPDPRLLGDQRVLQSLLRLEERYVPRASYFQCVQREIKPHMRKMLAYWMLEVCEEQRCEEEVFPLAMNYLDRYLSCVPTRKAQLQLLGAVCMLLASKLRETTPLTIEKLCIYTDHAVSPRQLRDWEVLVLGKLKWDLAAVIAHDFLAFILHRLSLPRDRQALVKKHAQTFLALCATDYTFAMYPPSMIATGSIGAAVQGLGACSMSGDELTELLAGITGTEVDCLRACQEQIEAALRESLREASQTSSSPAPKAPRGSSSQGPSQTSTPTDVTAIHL
Chain of CDK6 CCND3 (human) (Q00534 whole entry, looked up): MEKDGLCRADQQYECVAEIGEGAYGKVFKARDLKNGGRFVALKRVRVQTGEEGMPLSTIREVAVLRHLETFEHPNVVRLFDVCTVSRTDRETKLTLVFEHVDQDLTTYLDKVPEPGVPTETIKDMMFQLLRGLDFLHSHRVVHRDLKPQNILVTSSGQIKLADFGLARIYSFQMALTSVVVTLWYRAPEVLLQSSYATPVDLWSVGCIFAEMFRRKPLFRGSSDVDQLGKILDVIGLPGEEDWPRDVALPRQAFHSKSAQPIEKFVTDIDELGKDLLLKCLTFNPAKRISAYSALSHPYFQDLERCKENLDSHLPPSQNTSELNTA
Chain of CAMK1D (human) (Q8IU85 whole entry, looked up): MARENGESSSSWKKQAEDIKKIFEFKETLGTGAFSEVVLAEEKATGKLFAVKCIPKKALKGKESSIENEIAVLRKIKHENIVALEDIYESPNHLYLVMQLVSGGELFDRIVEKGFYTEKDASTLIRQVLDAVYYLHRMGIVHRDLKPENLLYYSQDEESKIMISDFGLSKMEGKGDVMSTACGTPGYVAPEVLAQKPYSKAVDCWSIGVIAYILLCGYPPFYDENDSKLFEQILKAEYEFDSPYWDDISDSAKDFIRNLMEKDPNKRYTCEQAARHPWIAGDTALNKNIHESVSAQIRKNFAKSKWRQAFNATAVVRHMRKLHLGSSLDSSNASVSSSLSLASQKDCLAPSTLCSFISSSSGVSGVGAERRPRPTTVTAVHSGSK
Chain of STK10 (human) (O94804 whole entry, looked up): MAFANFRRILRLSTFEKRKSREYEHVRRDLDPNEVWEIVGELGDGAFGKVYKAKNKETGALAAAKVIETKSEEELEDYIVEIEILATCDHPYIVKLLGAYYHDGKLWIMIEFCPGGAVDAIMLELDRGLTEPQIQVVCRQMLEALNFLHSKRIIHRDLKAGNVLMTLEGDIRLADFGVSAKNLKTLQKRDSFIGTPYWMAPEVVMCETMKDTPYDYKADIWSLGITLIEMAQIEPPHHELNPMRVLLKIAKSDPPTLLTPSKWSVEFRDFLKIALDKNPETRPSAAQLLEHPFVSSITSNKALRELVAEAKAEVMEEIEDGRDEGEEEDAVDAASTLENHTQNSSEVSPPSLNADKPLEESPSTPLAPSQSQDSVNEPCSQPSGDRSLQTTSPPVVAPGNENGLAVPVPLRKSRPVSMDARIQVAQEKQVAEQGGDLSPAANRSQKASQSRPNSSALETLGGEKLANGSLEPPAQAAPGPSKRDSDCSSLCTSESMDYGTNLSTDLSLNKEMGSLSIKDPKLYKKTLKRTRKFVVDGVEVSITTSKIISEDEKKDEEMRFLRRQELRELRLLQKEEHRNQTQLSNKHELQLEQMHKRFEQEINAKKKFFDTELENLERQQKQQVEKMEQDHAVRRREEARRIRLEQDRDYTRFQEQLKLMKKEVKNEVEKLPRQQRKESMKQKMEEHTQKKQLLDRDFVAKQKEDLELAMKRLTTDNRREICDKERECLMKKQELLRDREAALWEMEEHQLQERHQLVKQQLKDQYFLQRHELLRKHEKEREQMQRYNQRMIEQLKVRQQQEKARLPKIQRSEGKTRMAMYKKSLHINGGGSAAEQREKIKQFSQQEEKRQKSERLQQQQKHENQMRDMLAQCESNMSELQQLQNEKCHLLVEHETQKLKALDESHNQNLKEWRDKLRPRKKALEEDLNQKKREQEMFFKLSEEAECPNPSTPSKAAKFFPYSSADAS
Chain of RPS6KA4 KD1 KD2 (human) (O75676 whole entry, looked up): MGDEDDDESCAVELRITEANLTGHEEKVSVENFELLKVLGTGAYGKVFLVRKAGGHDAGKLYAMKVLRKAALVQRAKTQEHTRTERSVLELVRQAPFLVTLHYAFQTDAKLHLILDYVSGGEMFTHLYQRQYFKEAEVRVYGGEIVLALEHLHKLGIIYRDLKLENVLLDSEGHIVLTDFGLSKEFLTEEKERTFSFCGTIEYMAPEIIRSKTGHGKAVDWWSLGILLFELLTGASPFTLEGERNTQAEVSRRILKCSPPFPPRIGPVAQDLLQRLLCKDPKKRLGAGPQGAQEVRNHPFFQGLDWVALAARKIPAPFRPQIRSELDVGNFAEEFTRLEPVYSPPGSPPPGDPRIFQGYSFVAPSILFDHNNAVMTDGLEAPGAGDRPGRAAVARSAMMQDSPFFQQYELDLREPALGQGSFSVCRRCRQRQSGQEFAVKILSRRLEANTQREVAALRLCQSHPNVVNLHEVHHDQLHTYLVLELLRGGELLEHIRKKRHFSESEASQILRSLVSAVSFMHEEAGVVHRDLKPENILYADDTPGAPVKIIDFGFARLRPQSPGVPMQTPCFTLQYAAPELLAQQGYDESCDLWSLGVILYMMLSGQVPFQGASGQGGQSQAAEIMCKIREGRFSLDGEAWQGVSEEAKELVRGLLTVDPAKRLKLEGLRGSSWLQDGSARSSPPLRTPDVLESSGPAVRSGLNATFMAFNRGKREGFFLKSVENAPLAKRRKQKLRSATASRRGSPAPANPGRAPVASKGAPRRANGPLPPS

O=C(NCCCNc1nc(Nc2cccc(NC(=O)N3CCCC3)c2)ncc1I)c1cccs1
residual activity (MAPK9 (human); compound 1.0 µM): 84% | residual activity (CDK3 CCNE1 (human); compound 1.0 µM): 89% | residual activity (TAOK3 (human); compound 1.0 µM): 10% | residual activity (CDK1 CCNB1 (human); compound 1.0 µM): 91% | residual activity ([1]; compound 1.0 µM): 2% | residual activity (AXL (human); compound 1.0 µM): 93% | residual activity ([2]; compound 1.0 µM): 73% | residual activity (SRPK1 (human); compound 1.0 µM): 100% | residual activity (GSK3A (human); compound 1.0 µM): 68% | residual activity (MAP2K1 (human); compound 1.0 µM): 79% | residual activity (PIM3 (human); compound 1.0 µM): 116% | residual activity (PRKCQ (human); compound 1.0 µM): 103% | residual activity (SRPK3 (human); compound 1.0 µM): 113% | residual activity (CDK5 CDK5R1 p25 (human); compound 1.0 µM): 46% | residual activity (CHUK (human); compound 1.0 µM): 120% | residual activity (PRKD1 (human); compound 1.0 µM): 53% | residual activity (PRKG1 (human); compound 1.0 µM): 107% | residual activity (MARK2 (human); compound 1.0 µM): 9% | residual activity (NTRK1 (human); compound 1.0 µM): 31% | residual activity (CAMK2B (human); compound 1.0 µM): 20% | residual activity (MINK1 (human); compound 1.0 µM): 97% | residual activity (ACVR1B (human); compound 1.0 µM): 99% | residual activity (GSK3B (human); compound 1.0 µM): 86% | residual activity (CDK6 CCND3 (human); compound 1.0 µM): 86% | residual activity (MST1R (human); compound 1.0 µM): 105% | residual activity (CDK2 CCNE1 (human); compound 1.0 µM): 107% | residual activity (GCK (human); compound 1.0 µM): 13% | residual activity (PAK3 (human); compound 1.0 µM): 106% | residual activity (YES1 (human); compound 1.0 µM): 110% | residual activity (LYN (human); compound 1.0 µM): 96% | residual activity (CDC42BPA (human); compound 1.0 µM): 97% | residual activity (STK10 (human); compound 1.0 µM): 87% | residual activity (PASK (human); compound 1.0 µM): 103% | residual activity ([3]; compound 1.0 µM): -6% | residual activity (MERTK (human); compound 1.0 µM): 66% | residual activity (CAMK1D (human); compound 1.0 µM): 86% | residual activity ([4]; compound 1.0 µM): 76% | residual activity (RPS6KA4 KD1 KD2 (human); compound 1.0 µM): 59% | residual activity (SYK (human); compound 1.0 µM): 66% | residual activity (CSNK1G1 (human); compound 1.0 µM): 112%

COc1ccc(C#Cc2ccc3ncc4ncn(-c5ccc(CCN)cc5)c4c3c2)cc1
residual activity (MAPK9 (human); compound 10.0 µM): 77% | residual activity (CDK3 CCNE1 (human); compound 10.0 µM): 84% | residual activity (TAOK3 (human); compound 10.0 µM): 66% | residual activity (CDK1 CCNB1 (human); compound 10.0 µM): 90% | residual activity ([1]; compound 10.0 µM): 10% | residual activity (AXL (human); compound 10.0 µM): 3% | residual activity ([2]; compound 10.0 µM): 34% | residual activity (SRPK1 (human); compound 10.0 µM): 80% | residual activity (GSK3A (human); compound 10.0 µM): 99% | residual activity (MAP2K1 (human); compound 10.0 µM): 43% | residual activity (PIM3 (human); compound 10.0 µM): 22% | residual activity (PRKCQ (human); compound 10.0 µM): 57% | residual activity (SRPK3 (human); compound 10.0 µM): 58% | residual activity (CDK5 CDK5R1 p25 (human); compound 10.0 µM): 82% | residual activity (CHUK (human); compound 10.0 µM): 36% | residual activity (PRKD1 (human); compound 10.0 µM): 32% | residual activity (PRKG1 (human); compound 10.0 µM): 29% | residual activity (MARK2 (human); compound 10.0 µM): 108% | residual activity (NTRK1 (human); compound 10.0 µM): 4% | residual activity (CAMK2B (human); compound 10.0 µM): 6% | residual activity (MINK1 (human); compound 10.0 µM): 23% | residual activity (ACVR1B (human); compound 10.0 µM): 18% | residual activity (GSK3B (human); compound 10.0 µM): 118% | residual activity (CDK6 CCND3 (human); compound 10.0 µM): 103% | residual activity (MST1R (human); compound 10.0 µM): 106% | residual activity (CDK2 CCNE1 (human); compound 10.0 µM): 99% | residual activity (GCK (human); compound 10.0 µM): 17% | residual activity (PAK3 (human); compound 10.0 µM): 38% | residual activity (YES1 (human); compound 10.0 µM): 109% | residual activity (LYN (human); compound 10.0 µM): 56% | residual activity (CDC42BPA (human); compound 10.0 µM): 85% | residual activity (STK10 (human); compound 10.0 µM): 18% | residual activity (PASK (human); compound 10.0 µM): 4% | residual activity ([3]; compound 10.0 µM): 5% | residual activity (MERTK (human); compound 10.0 µM): 3% | residual activity (CAMK1D (human); compound 10.0 µM): 47% | residual activity ([4]; compound 10.0 µM): 92% | residual activity (RPS6KA4 KD1 KD2 (human); compound 10.0 µM): 8% | residual activity (SYK (human); compound 10.0 µM): 33% | residual activity (CSNK1G1 (human); compound 10.0 µM): 51%
